From patent US6610699B2, “Use of L-carnitine and its alkanoyl derivatives in the preparation of medicaments with anticancer activity” (Sigma-Tau Industrie Farmaceutiche Riunite S.p.A., priority 1998, dated 2003)

Tests used:
female BALB/c mice = assay: Taxol (i.p.)-induced neutropenia in the mouse, blood cell count
Experimental: In this model, the amount of circulating neutrophils was measured.
Acetyl L-carnitine inner salt (sterile ampoule), solubilised in water for injectable preparations, was used. Each ampoule of ALC is dissolved in 4 ml of water for injections (Solution O). Two ml of (O) are brought up to 25 ml with sterile PBS (Sigma), so as to have 10 mg/ml for subcutaneous administration (100 mg/kg/ 10 ml); 0.8 ml of (O) are brought to 50 ml with PBS in order to have 2 mg/ml for oral administration (100 mg/kg/50 ml).
At the time of use, the 12 mg/ml solution is diluted 1:4 with saline in phosphate buffer (PBS) (SIGMA,) and injected i.p. (30 mg/kg/10 ml).
The mice are anaesthetised with CO2; blood is taken from the retro-orbital plexus (0.5 ml blood/mouse) and placed in Eppendorf test tubes containing 10 μl of Vister heparin (5000 U/ml). The animals are sacrificed by cervical dislocation. Later, the bone marrow samples are taken.
The instrument is used according to the instructions provided in the operating manual. The blood (25 μl) is taken from the dilutor and brought to a volume of 10 ml with isotonic solution (PLTA Saline, Delcon) in a beaker (dil. 1:400) (Solution A). From Solution A, the dilutor takes 100 μl and brings them to 10 ml (dil. 1:100) in another beaker (Solution B). To Solution A are added 3 drops of lysing agent (Emosol, Delcon), the solution is mixed by hand and left to act for approximately 2 minutes so that the red blood cells are lysed and HGB (haemoglobin) released. Solution A containing the lysing agent is used for the WBC and haemoglobin (HGB) readings. Solution B is used for the RBC and platelet (PLT) readings.
Double readings are done on each sample, and between one sample and the next, the instrument is washed using isotonic solution,
Superfrost plus slides (25×75×1 mm) (Mensel-Glaser), ready for use, are adopted. The blood (8 μl) is deposited on the right-hand side of the slide; another slide, placed at a 45° angle, to the left of the blood, is drawn back until in comes into contact with the drop which spreads rapidly along the contact line between the two slides; the slide is moved forwards with a smooth, rapid movement so as to obtain a thin film of blood. The slide is left to dry in air, stained with Diff-Quick (DADE) dye, according to the attached instructions, and dried again in air.
The slides are immersed in Histolemon solution (Carlo Erba) for 2 sec.; a drop of synthetic mountant (Shandon) os deposited at the centre of the slide and a cover slide is placed over it covering the entire blood smear, taking care not to form bubbles between the two slides. The slides are dried and then the WBC count is performed, up to 100, with an optical microscope, after depositing a drop of cedar oil on the slide.
The quantity of […], assessed using the haemocytometer, is multiplied by the percentage value of the corresponding neutrophil granulocytes of the leukocyte formula. This parameter, divided by 100, expresses the value of neutrophils/mm^3 blood.
Data are expressed as means ±SE. Comparison between the neutrophil granulocyte values obtained for the different groups is done using ANOVA. Abnormal values are subjected to the Dixon test.

M109 murine lung cancer = assay: Growth of M109 murine lung cancer in BALB/c mice; format: in vivo, mouse; settings: for Tumour size, Day 8 / Tumour size, Day 11 / Tumour size, Day 13 / Tumour size, Day 15 / Tumour size, Day 20: taxol 30 mg/kg i.p., ALC 100 mg/kg os; for Tumour size, Day 8: day 8 post-inoculation; for Tumour size, Day 11: day 11 post-inoculation; for Tumour size, Day 13: day 13 post-inoculation; for Tumour size, Day 15: day 15 post-inoculation; for Tumour size, Day 20: day 20 post-inoculation
Experimental: Each ampoule of ALC is dissolved in 4 ml of the solvent provided (solution O). To be precise, 1.6 ml of solution O are brought to 40 ml with sterile buffer solution (PBS, Sigma P-4417) and then administered orally (100 mg/kg/20 ml).
At the time of use, the 12 mg/ml solution is diluted 1:4 with saline in phosphate buffer (PBS) (SIGMA,) and injected i.p. (30 mg/kg/ 10 ml).
Animals: 60 female Balb/c mice weighing 18 g (Harlan).
M109 tumour cells isolated from solid tumour.
The procedure described by Kedar E., B. Ikejiri, G. D. Bannard and R. B. Herberman (Eur. J. Cancer Clin. Oncol. 18; 991: 1982) is adopted with modifications. One Balb/c mouse (donor) was sacrificed by cervical dislocation, and after washing its back with denatured alcohol, the dorsal skin was cut longitudinally into two flaps which were detached to remove the tumour mass. The latter was placed on sterile gauze, where it was freed of connective tissue adhesions and of the necrotic and haemorrhagic parts. The study tissue was placed in a plate containing PBS with Ca^++ and Mg^++ (Gibco) at pH 7.2 and cold, broken down into pieces measuring 2-3 mm and re-suspended in a solution (15 ml solution/g tumour) of PBS with Ca^++ and Mg^++, pH 7.2m containing 2 mg/ml trypsin (type III. 10000 U/mg protein, Sigma-Aldrich), 2 mg/ml collagenase (type I-S 180 U/mg solid, Sigma), 0.2 mg/ml DNAse (type I 1548 U/mg protein. Sigma) and 25 μg/ml gentamicin (Sigma) and incubated at 37° C. for 15 minutes under constant stirring. The cell suspension was then homogenised with the aid of a potter (B. Braun) for 2 minutes, incubated at 37° C. for 10 minutes and aspirated gently a number of times with a syringe with a No. 21 sterile needle. After addition of 30 ml of RPMI-1640 (Eurobio) containing 10% FBS (Eurobio) maintained at 4° C. the cell suspension was filtered on sterile gauze and then centrifuged at 700 g for 10 minutes. The cell pellet was re-suspended gently in RPMI-1640 containing 10% FBS and 0.2 mg/ml DNAse (Sigma) and then centrifuged at 700 g for 10 minutes. The pellet was consecutively subjected to two washings with RPMI-1640; at the end of the last washing, the pellet was re-suspended gently in RPMI-1640 so as to perform the count to establish the cell concentration.
Inoculation conditions: 60 unanaesthetised Balb/c mice weighing approximately 18 g (Harlan) received i.m. injections of 3×10^5 M109 lung cancer cells in 0.1 ml of RPMI-1640 (Sigma) in the right rear paw.
Treatment schedule: for the purposes of evaluating tumour size in the experimental study groups, each consisting of 15 Balb/c mice, 3×10^5 M109 lung cancer cells were inoculated, and the study molecules were administered at the scheduled times. […] The vehicle diluted 1:4 with PBS from the mother solution was administered i.p. on days 8, 10, 12 and 14.
The tumour mass is calculated on the basis of the measurements of the two dimensions (length and width), expressed in mm. according to the following formula: [formula]
If we consider conventionally a tumour density equal to 1, the result is that the tumour volume expressed in mm^3 is equal to the weight of the tumour expressed in mg.

[1] = 6 hours after last administration (Table 4)
[2] = taxol 30 mg/kg i.p. x4, ALC 100 mg/kg, sacrifice 6 hours after last taxol administration
[3] = taxol 30 mg/kg i.p. x4 on alternate days, ALC 100 mg/kg, sacrifice 6 hours after last taxol administration
[4] = taxol i.p., sacrifice 3 days after last taxol administration
[5] = three days after last administration (Table 5)

| SMILES | changes in neutrophils compared to vehicle alone or untreated animals (in words) (female BALB/c mice; [1]) | Absolute neutrophils (female BALB/c mice; [2]) | Lymphocytes (female BALB/c mice; [2]) [%] | Neutrophils (female BALB/c mice; [2]) [%] | WBC (female BALB/c mice; [3]) [Mm^3] | Absolute neutrophils (female BALB/c mice; [4]) | Lymphocytes (female BALB/c mice; [4]) [%] | Neutrophils (female BALB/c mice; [4]) [%] | WBC (female BALB/c mice; [4]) [Mm^3] | changes in neutrophils compared to vehicle alone or untreated animals (in words) (female BALB/c mice; [5]) | Tumour size, Day 8 (M109 murine lung cancer) [mm^3] | Tumour size, Day 11 (M109 murine lung cancer) | Tumour size, Day 13 (M109 murine lung cancer) | Tumour size, Day 15 (M109 murine lung cancer) | Tumour size, Day 20 (M109 murine lung cancer) | also measured |
| --- | --- | --- | --- | --- | --- | --- | --- | --- | --- | --- | --- | --- | --- | --- | --- | --- |
| CC(=O)O[C@H](CC(=O)[O-])C[N+](C)(C)C [ALC, acetyl L-carnitine] | no changes | 708 ± /mm^3 | 88.7 | 11.2 | 6452 | 691 ± /mm^3 | 89.9 | 10.1 | 6920 | no changes |  |  |  |  |  | polymorphonucleates, change under taxol with acetyl L-carnitine (female BALB/c mice; acetyl L-carnitine 100 mg/kg oral (os) with taxol 30 mg/kg i.p. x4): −23%; polymorphonucleates, change under taxol with acetyl L-carnitine (female BALB/c mice; acetyl L-carnitine 100 mg/kg subcutaneous (sc) with taxol 30 mg/kg i.p. x4): 8-43%; effect on the anticancer action of taxol, inhibition of the tumour mass (in words) (M109 murine lung cancer; ALC 100 mg/kg os with taxol 30 mg/kg i.p.): does not interfere with the anticancer action of taxol |
| CC(=O)O[C@H]1C(=O)[C@@]2(C)[C@H]([C@H](OC(=O)c3ccccc3)[C@]3(O)C[C@H](OC(=O)[C@H](O)[C@@H](NC(=O)c4ccccc4)c4ccccc4)C(C)=C1C3(C)C)[C@]1(OC(C)=O)CO[C@@H]1C[C@@H]2O [Taxol, paclitaxel, reference compound] |  |  |  |  |  |  |  |  |  |  | 539 | 662 ± mm^3 | 622 ± mm^3 | 857 ± mm^3 | 1085 ± mm^3 | neutrophil granulocytes vs vehicle (female BALB/c mice; mouse, in vivo): −64%; reduction in neutrophils (female BALB/c mice; mouse, in vivo): 98%; Absolute neutrophils (female BALB/c mice; mouse, in vivo, ip): ****250 ± /mm^3; Lymphocytes (female BALB/c mice; mouse, in vivo, ip): 95.5%; Neutrophils (female BALB/c mice; mouse, in vivo, ip): 4.5%; WBC (female BALB/c mice; mouse, in vivo, ip): 5855 Mm^3 |
| CC(=O)O[C@H](CC(=O)[O-])C[N+](C)(C)C [Vehicle + ALC, acetyl L-carnitine] | no changes | 511 ± /mm^3 | 91.5 | 8.5 | 5950 | 625 ± /mm^3 | 89.2 | 10.7 | 6067 | no changes | 567 | 959 mm^3 | 1289 mm^3 | 1779 ± mm^3 | 2251 mm^3 |  |
